Test results: patent US5641780A, “Pyrrolo-indole derivatives” (priority 1994, dated 1997)
Where two headings read alike, the source gives them in different places.

Legend:
[1] = tested on: Sarcoma 180 tumor; assay: Therapeutic Effect on Sarcoma 180 Tumor; type: in vivo, male ddY-strain mice; settings: Mus musculus, determined seven days after implantation; for response vs control in vivo at 0.5 mg/kg: read-out: T/C (average tumor volume treated / control), dose 0.50 mg/kg, intravenous, one day after implantation
Protocol: Five male ddY-strain mice each weighing 18-20 g were used for each group as test animals, and 5×10^5 Sarcoma 180 tumor cells were implantedat the axilla subcutaneously. One day after the implantation, 0.2 ml of a physiological saline containing Compound (I) at the concentration shown in Table 3 was intravenously administered to each mouse. T/C [T: average tumor volume (mm^3) of the group treated with the test compound, C: average tumor volume (mm^3) of the control group (to which 0.2 ml of a physiological saline was intravenously administered)] was determined seven days after the implantation.

[2] = tested on: HeLaS3 cells; assay: Growth Inhibitory Effect Against HeLaS3 cells; type: cell-based
Protocol: HeLaS3 cells were suspended in MEM medium containing 10% fetal calf serum and 2 mM glutamine to a concentration of 2.67×10^4 cells/ml. The cell suspension thus prepared was put into wells of a 24-well culture plate in an amount of 0.75 ml per well. After the cells were incubated in a CO2 incubator overnight at 37° C., Compound (I) which had been appropriately diluted with a culture medium was added to each well in an amount of 0.25 ml.
The cells were further incubated in the CO2 incubator for 72 hours, and the culture supernatant was removed. Then, the cells were dispersed in a solution of trypsin and EDTA, and recovered. The number of the cells was counted using a cell counter. The concentration of Compound (I) at which the growth of the cells is inhibited by 50% was calculated by comparing the number of untreated cells with the number of the cells treated with Compound (I) at known concentrations, and the value was defined as IC50.

[3] = tested on: ddY-strain male mice; assay: Acute toxicity (minimum lethal dose); type: in vivo; settings: intravenous, mortality at 14 days after administration
Protocol: Compound (I) was intravenously administered to ddY-strain male mice each weighing 20±1 g. MLD (minimum lethal dose) was determined by observing the mortality at 14 days after administration.

[4] = Sarcoma-180, 168 h, dose 8.0 mg/kg, intravenous, one day after implantation, read-out: T/C (average tumor volume treated / control)
[5] = Homo sapiens, HeLa S3, 72 hours, 37° C., cell counter, read-out: IC50, growth inhibition of HeLaS3 cells
[6] = Homo sapiens, HeLa S3, 72 h, read-out: IC50, growth inhibition of HeLaS3 cells, 72 hours, 37° C., cell counter
[7] = Sarcoma-180, 168 h, dose 4.0 mg/kg, intravenous, one day after implantation, read-out: T/C (average tumor volume treated / control)
[8] = Sarcoma-180, iv, 168 h, read-out: T/C (average tumor volume treated / control), dose 4.0 mg/kg, intravenous, one day after implantation

COC(=O)c1c(C)[nH]c2c(OCc3ccccc3)cc3c(c12)C(CBr)CN3C(=O)c1cc2cc(OC)c(OC)c(OC)c2[nH]1 (stereo not drawn) [Compound 1]
response vs control in vivo at 8 mg/kg [1, 4]: 19%
IC50 [2, 5]: 5.1 nM

COC(=O)c1c(C)[nH]c2c(OC)cc3c(c12)C(CBr)CN3C(=O)c1cc2cc(OC)c(OC)c(OC)c2[nH]1 (stereo not drawn) [Compound 2]
response vs control in vivo at 8 mg/kg [1, 4]: 27%
IC50 [2, 5]: 6.3 nM

COC(=O)c1c(C)[nH]c2c(OS(C)(=O)=O)cc3c(c12)C(CBr)CN3C(=O)c1cc2cc(OC)c(OC)c(OC)c2[nH]1 (stereo not drawn) [Compound 4]
response vs control in vivo at 16 mg/kg ([1]; Sarcoma-180, 168 h, dose 16 mg/kg, intravenous, one day after implantation, read-out: T/C (average tumor volume treated / control)): 20%
IC50 [2, 5]: 4 nM

COC(=O)c1c(C)[nH]c2c(OC(C)=O)cc3c(c12)C(CBr)CN3C(=O)c1cc2cc(OC)c(OC)c(OC)c2[nH]1 (stereo not drawn) [Compound 6]
MLD (minimum lethal dose) [3]: 0.25 mg/kg
response vs control in vivo at 0.5 mg/kg ([1]; Sarcoma-180, iv, 168 h): 18%
IC50 [2, 6]: 0.13 nM

COC(=O)Oc1cc2c(c3c(C(=O)OC)c(C)[nH]c13)C(CBr)CN2C(=O)c1cc2cc(OC)c(OC)c(OC)c2[nH]1 (stereo not drawn) [Compound 7]
MLD (minimum lethal dose) [3]: 0.50 mg/kg
response vs control in vivo at 0.5 mg/kg ([1]; Sarcoma-180, iv, 168 h): 10%
IC50 [2, 6]: 0.082 nM

COC(=O)c1c(C)[nH]c2c(OC(=O)Oc3ccccc3)cc3c(c12)C(CBr)CN3C(=O)c1cc2cc(OC)c(OC)c(OC)c2[nH]1 (stereo not drawn) [Compound 8]
MLD (minimum lethal dose) [3]: 0.50 mg/kg
response vs control in vivo at 0.5 mg/kg ([1]; Sarcoma-180, iv, 168 h): 9%
IC50 [2, 6]: 0.051 nM

COC(=O)c1c(C)[nH]c2c(OC(=O)NCC(=O)O)cc3c(c12)C(CBr)CN3C(=O)c1cc2cc(OC)c(OC)c(OC)c2[nH]1 (stereo not drawn) [Compound 10]
MLD (minimum lethal dose) [3]: > 4.0 mg/kg
response vs control in vivo at 4 mg/kg [1, 7]: 10%
IC50 [2, 5]: 0.23 nM

COC(=O)c1c(C)[nH]c2c(OC(=O)NC(Cc3ccccc3)C(=O)O)cc3c(c12)C(CBr)CN3C(=O)c1cc2cc(OC)c(OC)c(OC)c2[nH]1 (stereo not drawn) [Compound 11]
MLD (minimum lethal dose) [3]: > 4.0 mg/kg
response vs control in vivo at 4 mg/kg [1, 7]: 7%
IC50 [2, 5]: 0.17 nM

COC(=O)c1c(C)[nH]c2c(OC(C)=O)cc3c(c12)C(CBr)CN3C(=O)/C=C/c1ccc(OC)cc1 (stereo not drawn) [Compound 14]
MLD (minimum lethal dose) [3]: 2.0 mg/kg
response vs control in vivo at 4 mg/kg [1, 8]: 22%
IC50 [2, 6]: 0.31 nM

COC(=O)c1c(C)[nH]c2c(OC(=O)SC)cc3c(c12)C(CBr)CN3C(=O)/C=C/c1ccc(OC)cc1 (stereo not drawn) [Compound 15]
response vs control in vivo at 1 mg/kg ([1]; Sarcoma-180, 168 h, dose 1.0 mg/kg, intravenous, one day after implantation, read-out: T/C (average tumor volume treated / control)): 36%
IC50 [2, 5]: 0.43 nM

COC(=O)c1c(C)[nH]c2c(OC(=O)c3cccnc3)cc3c(c12)C(CBr)CN3C(=O)/C=C/c1ccc(OC)cc1 (stereo not drawn) [Compound 16]
response vs control in vivo at 2 mg/kg ([1]; Sarcoma-180, 168 h, dose 2.0 mg/kg, intravenous, one day after implantation, read-out: T/C (average tumor volume treated / control)): 33%
IC50 [2, 5]: 0.4 nM

COC(=O)c1c(C)[nH]c2c(OC(=O)NN3CCN(C)CC3)cc3c(c12)C(CBr)CN3C(=O)/C=C/c1ccc(OC)cc1 (stereo not drawn) [Compound 18]
response vs control in vivo at 8 mg/kg ([1]; Sarcoma-180, iv, 168 h, read-out: T/C (average tumor volume treated / control), dose 8.0 mg/kg, intravenous, one day after implantation): 18%
IC50 [2, 6]: 0.54 nM

COC(=O)c1c(C)[nH]c2c(OC(=O)NN3CCN(C)CC3)cc3c(c12)C(CBr)CN3C(=O)/C=C/c1ccc(OC)cc1 (stereo not drawn) [Compound 19]
MLD (minimum lethal dose) [3]: > 8.0 mg/kg
response vs control in vivo at 4 mg/kg [1, 8]: 26%
IC50 ([2]; read-out: IC50, growth inhibition of HeLaS3 cells, 72 hours, 37° C., cell counter): 0.53 nM

COC(=O)c1c(C)[nH]c2c(OC(=O)NN3CCOCC3)cc3c(c12)C(CBr)CN3C(=O)/C=C/c1ccc(OC)cc1 (stereo not drawn) [Compound 20]
IC50 [2, 5]: 6.7 nM

COC(=O)c1c(C)[nH]c2c(OC(=O)c3nccnc3N)cc3c(c12)C(CBr)CN3C(=O)/C=C/c1ccc(OC)cc1 (stereo not drawn) [Compound 21]
IC50 [2, 5]: 0.38 nM

COC(=O)c1c(C)[nH]c2c(OC(=O)c3ccc(N)c(N)c3)cc3c(c12)C(CBr)CN3C(=O)/C=C/c1ccc(OC)cc1 (stereo not drawn) [Compound 22]
IC50 [2, 5]: 2.7 nM
